Relative viability data for one cell line are collected here from the supplement of paper PMC10307832.

Common to all, as to experiment: relative viability (nuclei count vs DMSO), 5 days (fraction); higher = more cells survive
Compound in the test “Bleomycin + Dasatinib”: CC1=C(N=C(N=C1N)[C@H](CC(=O)N)NC[C@@H](C(=O)N)N)C(=O)N[C@@H]([C@H](C2=CN=CN2)OC3C(C(C(C(O3)CO)O)O)OC4C(C(C(C(O4)CO)O)OC(=O)N)O)C(=O)N[C@H](C)[C@H]([C@H](C)C(=O)N[C@@H]([C@@H](C)O)C(=O)NCCC5=NC(=CS5)C6=NC(=CS6)C(=O)NCCC[S+](C)C)O [Bleomycin] + Cc1nc(Nc2ncc(C(=O)Nc3c(C)cccc3Cl)s2)cc(N2CCN(CCO)CC2)n1 [Dasatinib] (partner 0.075 µM)
The following applies: main component drawn. The method, boiled down: (§1)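 Cells from lung cancer lines were seeded into 1536-well plates and, one day later, dosed by pin tool. Treatments were either a single drug or a fixed dose of an anchor drug with five library-drug doses (not always all listed) in √10 steps. After 5 days, nuclei were stained in a one-step fixation (final 0.05% Triton X-100, 1% formaldehyde, 1 ug/ml Hoechst) and counted on 4× images, and relative viability is the treated-to-vehicle nuclei ratio, as the median of duplicate plates.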

Compound in the test “Etoposide + Trametinib”: COc1cc([C@@H]2c3cc4c(cc3[C@@H](O[C@@H]3O[C@@H]5CO[C@@H](C)O[C@H]5[C@H](O)[C@H]3O)[C@H]3COC(=O)[C@H]23)OCO4)cc(OC)c1O [Etoposide] + CC(=O)Nc1cccc(-n2c(=O)n(C3CC3)c(=O)c3c(Nc4ccc(I)cc4F)n(C)c(=O)c(C)c32)c1 [Trametinib] (partner 0.02 µM)
Summed up: as §1

Compound in the test “Etoposide + Navitoclax”: COc1cc([C@@H]2c3cc4c(cc3[C@@H](O[C@@H]3O[C@@H]5CO[C@@H](C)O[C@H]5[C@H](O)[C@H]3O)[C@H]3COC(=O)[C@H]23)OCO4)cc(OC)c1O [Etoposide] + CC1(C)CCC(c2ccc(Cl)cc2)=C(CN2CCN(c3ccc(C(=O)NS(=O)(=O)c4ccc(N[C@H](CCN5CCOCC5)CSc5ccccc5)c(S(=O)(=O)C(F)(F)F)c4)cc3)CC2)C1 [Navitoclax] (partner 0.5 µM)
Summed up: as §1

Compound in the test “Etoposide + OSI-027”: COc1cc([C@@H]2c3cc4c(cc3[C@@H](O[C@@H]3O[C@@H]5CO[C@@H](C)O[C@H]5[C@H](O)[C@H]3O)[C@H]3COC(=O)[C@H]23)OCO4)cc(OC)c1O [Etoposide] + COc1cccc2cc(-c3nc([C@H]4CC[C@H](C(=O)O)CC4)n4ncnc(N)c34)[nH]c12 [OSI-027] (partner 0.5 µM)
The method, boiled down: as §1

With UMC-11, the relative viability with Bleomycin + Dasatinib (first compound 0.01 µM) was found to be 0.448; in the test with Bleomycin + Dasatinib (first compound 0.03162 µM) it was 0.511; in the test with Bleomycin + Dasatinib (first compound 0.1 µM), 0.495; in the test with Bleomycin + Dasatinib (first compound 0.3162 µM), 0.385; with Bleomycin + Dasatinib (first compound 1 µM), 0.328; with Etoposide + Trametinib (first compound 0.01 µM), 0.711. Further, the relative viability came out at 0.711 in the test with Etoposide + Trametinib (first compound 0.03162 µM); 0.352 with Etoposide + Trametinib (first compound 0.1 µM); 0.258 in the test with Etoposide + Trametinib (first compound 0.3162 µM); 0.292 with Etoposide + Trametinib (first compound 1 µM); 0.344 with Etoposide + Navitoclax (first compound 0.01 µM); 0.307 with Etoposide + Navitoclax (first compound 0.03162 µM). Moreover, the relative viability in the test with Etoposide + Navitoclax (first compound 0.3162 µM) came to 0.193; with Etoposide + Navitoclax (first compound 1 µM), 0.155; in the test with Etoposide + OSI-027 (first compound 0.01 µM), 0.443; with Etoposide + OSI-027 (first compound 0.03162 µM), 0.544; with Etoposide + OSI-027 (first compound 0.1 µM), 0.299; with Etoposide + OSI-027 (first compound 0.3162 µM) it was 0.431. In the test with Etoposide + OSI-027 (first compound 1 µM), the relative viability was 0.3.
